Test results taken from ChEMBL document CHEMBL1153718, “1,2,4-Triazolyl azabicyclo[3.1.0]hexanes: a new series of potent and selective dopamine D(3) receptor antagonists” (J Med Chem, 2010).

Columns and labels:
[1] = tested on: Rattus norvegicus; assay: Volume of distribution at steady state in po dosed rat; type: ADME, organism-based; conditions: in vivo
[2] = Clearance in po dosed rat blood; type: ADME, organism-based
[3] = Cmax in Hartley guinea pig at 0.5 to 15 mg/kg, iv; type: ADME, organism-based, Cavia porcellus; parameters: dose 0.5-15 mg/kg, route intravenous; conditions: in vivo
[4] = Oral bioavailability in rat; type: ADME, organism-based; conditions: in vivo
[5] = Half life in po dosed rat; type: ADME, organism-based; conditions: in vivo

Row | Structure (SMILES) | Vdss [1] [L/kg] | CL/F [2] [mL/min/kg] | Cmax [3] [ng/mL] | bioavailability [4] [%] | half-life [5] [min]
1 | Cc1ncoc1-c1nnc(SCCCN2CC3CC3(c3ccc(C(F)(F)F)cc3F)C2)n1C (single isomer, unassigned; 74) | 4.3 | 18 | 8640 | 47 | 222
2 | Cn1c(SCCCN2C[C@@H]3C[C@]3(c3ccc(C(F)(F)F)cc3)C2)nnc1-c1ccnnc1 | 2.2 | 13 | 9580 | 46 | 126
3 | Cc1ncoc1-c1nnc(SCCCN2CC3CC3(c3ccc(Cl)cc3)C2)n1C (single isomer, unassigned; 51) | 2.6 | 40 | – | 31 | 78
4 | Cc1nc(C)c(-c2nnc(SCCCN3C[C@@H]4C[C@]4(c4ccc(C(F)(F)F)cc4)C3)n2C)s1 | 3.9 | 26 | 8320 | 23 | 120
5 | Cc1ncccc1-c1nnc(SCCCN2C[C@@H]3C[C@]3(c3ccc(C(F)(F)F)cc3)C2)n1C | 2.5 | 18 | 6240 | 50 | 126
6 | Cc1ncoc1-c1nnc(SCCCN2CC3CC3(c3ccc(C(F)(F)F)cc3)C2)n1C (racemic) | 3.5 | 14 | – | 85 | 192
